ChEMBL document CHEMBL1201862, “PubChem BioAssay data set” (2004)
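Interpolation was linear, between the two tested concentrations surrounding the appropriate level; five concentrations were tested over 48 hours in 96-well plates. GI50 is the concentration that inhibits growth by half.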 Activity calls are given as the source filed them. No stated cut-off is given here; in the data, active = GI50 up to about 1.1 µM and inactive = higher.

Tests used:
Assay in all cases: NCI-60 cell line screen, 48 h
[1] = test system: K562
[2] = test system: A498
[3] = test system: OVCAR-3
[4] = test system: OVCAR-8
[5] = test system: NCI-H23
[6] = test system: CAKI-1
[7] = test system: HT-29
[8] = test system: OVCAR-5
[9] = test system: BT-549
[10] = test system: SF-295
[11] = test system: MOLT-4
[12] = test system: DU-145
[13] = test system: OVCAR-4
[14] = test system: LOX IMVI
[15] = test system: EKVX
[16] = test system: CCRF-CEM
[17] = test system: SW-620
[18] = test system: UACC-62
[19] = test system: MDA-MB-435
[20] = test system: NCI-H226
[21] = test system: HCT-116
[22] = test system: Malme-3M
[23] = test system: COLO 205
[24] = test system: MDA-MB-231
[25] = test system: RPMI-8226
[26] = test system: SK-MEL-5
[27] = test system: MCF7
[28] = test system: MDA-N
[29] = test system: SNB-75
[30] = test system: SK-MEL-28
[31] = test system: Hs-578T
[32] = test system: T47D
[33] = test system: NCI-H522
[34] = test system: PC-3
[35] = test system: KM12
[36] = test system: NCI/ADR-RES
[37] = test system: ACHN
[38] = test system: NCI-H460
[39] = test system: UO-31
[40] = test system: SR
[41] = test system: SN12C
[42] = test system: SNB-19
[43] = test system: HOP-62
[44] = test system: HOP-92
[45] = test system: U-251
[46] = test system: 786-0
[47] = test system: TK-10
[48] = test system: HCC 2998
[49] = test system: SF-539
[50] = test system: UACC-257
[51] = test system: RXF 393
[52] = test system: HCT-15
[53] = test system: A549
[54] = test system: SF-268
[55] = test system: SK-OV-3
[56] = test system: SK-MEL-2
[57] = test system: M14

`O=C(/C(Cl)=C/c1ccccc1)c1ccccc1` was tested, and the GI50 [1] was 2.06 µM (inactive), the GI50 [2] was 20.6 µM (inactive) and the GI50 [3] was 2.21 µM (inactive). The GI50 [4] was 2.84 µM (inactive), the GI50 [5] was 11.1 µM (inactive) and the GI50 [6] was 1.7 µM (inactive). For the same compound, the GI50 [7] was 1.46 µM (inactive), the GI50 [8] was 4.42 µM (inactive) and the GI50 [9] was 2.22 µM (inactive). The GI50 [10] was 17.5 µM (inactive), the GI50 [11] was 2.61 µM (inactive) and the GI50 [12] was 6.32 µM (inactive). The GI50 [13] was 4.41 µM (inactive), the GI50 [14] was 2.11 µM (inactive) and the GI50 [15] was 11.2 µM (inactive). The GI50 [16] was 0.692 µM (active), the GI50 [17] was 1.84 µM (inactive) and the GI50 [18] was 8.55 µM (inactive). For the same compound, the GI50 [19] was 3.01 µM (inactive), the GI50 [20] was 7.26 µM (inactive) and the GI50 [21] was 1.21 µM (inactive). For the same compound, the GI50 [22] was 2 µM (inactive), the GI50 [23] was 2.58 µM (inactive) and the GI50 [24] was 5.6 µM (inactive). The GI50 [25] was 2.33 µM (inactive), the GI50 [26] was 3.11 µM (inactive) and the GI50 [27] was 2.05 µM (inactive). For the same compound, the GI50 [28] was 1.86 µM (inactive), the GI50 [29] was 13.2 µM (inactive) and the GI50 [30] was 2.29 µM (inactive). The GI50 [31] was 3.54 µM (inactive), the GI50 [32] was 4.07 µM (inactive) and the GI50 [33] was 1.58 µM (inactive). For the same compound, the GI50 [34] was 2.61 µM (inactive), the GI50 [35] was 4.08 µM (inactive) and the GI50 [36] was 3.55 µM (inactive). For the same compound, the GI50 [37] was 2.24 µM (inactive), the GI50 [38] was 8.71 µM (inactive) and the GI50 [39] was 2.32 µM (inactive). For the same compound, the GI50 [40] was 1.85 µM (inactive), the GI50 [41] was 1.82 µM (inactive) and the GI50 [42] was 15.1 µM (inactive). For the same compound, the GI50 [43] was 19.2 µM (inactive), the GI50 [44] was 3.13 µM (inactive) and the GI50 [45] was 4.27 µM (inactive). For the same compound, the GI50 [46] was 1.53 µM (inactive), the GI50 [47] was 3.21 µM (inactive) and the GI50 [48] was 6.68 µM (inactive). For the same compound, the GI50 [49] was 3.03 µM (inactive), the GI50 [50] was 6.9 µM (inactive) and the GI50 [51] was 2.46 µM (inactive). For the same compound, the GI50 [52] was 2.47 µM, the GI50 [53] was 10.9 µM (inactive) and the GI50 [54] was 7.06 µM (inactive). For the same compound, the GI50 [55] was 19.7 µM (inactive), the GI50 [56] was 13.1 µM (inactive) and the GI50 [57] was 2.28 µM (inactive).
